Source: PubChem BioAssay AID463206 (Broad Institute, 2010)
Activity calls are given as the source filed them.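 The calls were made as follows: active = caspase luminescence falls with dose and the half-maximal concentration AC50 from the fitted curve is at or below a set limit; inconclusive = flat fit at 30 to 70% signal loss, or invalid fit; inactive = AC50 above the limit, or signal rises instead.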

System: INS-1E cytokine-induced caspase-3/7, Caspase-Glo luminescence, 48 h
Assay: suppression of cytokine-driven beta-cell apoptosis – INS-1E rat cells, luminescence, orthogonal assay for beta-cell apoptosis protection project, dose response (AID 463206)

**Q.** How did the AC50 turn out when `CCCCc1ccc(N/C(N)=N/c2nc(C)cc(C)n2)cc1` was run?
**A.** > 26 µM (inactive)

**Q.** Which AC50 does the source give for `CCN(CC)c1ccc(C(=O)N/N=C/c2ccccc2OC(F)F)cc1` here?
**A.** > 26 µM (inactive)

**Q.** `COC(=O)c1ccccc1NC1=C/C(=N\S(=O)(=O)c2cccs2)c2ccccc2C1=O` was tested. Which AC50 did it give?
**A.** > 26 µM (inactive)

**Q.** For `CCCC(=O)NC(NC(=S)Nc1ccc(N=Nc2ccccc2)cc1)C(Cl)(Cl)Cl` (stereo not given), which AC50 is on record?
**A.** > 26 µM (inactive)

**Q.** For `COC(=O)c1ccc(NC(=O)c2nc(S(=O)(=O)Cc3cccc(C)c3)ncc2Cl)cc1`, which AC50 is on record?
**A.** > 26 µM (inactive)

**Q.** How did the AC50 turn out when `CCOc1cc(-c2sc(Nc3cc(C)ccc3OC)n[n+]2-c2ccccc2)ccc1OC` was run?
**A.** > 26 µM (inactive)

**Q.** For `Cc1ccc2nc(NC(=O)c3ccccn3)sc2c1`, which AC50 is on record?
**A.** > 26 µM (inactive)

**Q.** With `CCc1cc[n+](C2=C([O-])c3ccccc3C(=O)/C2=N\S(=O)(=O)c2cccs2)cc1` as the molecule, how does the AC50 read?
**A.** > 26 µM (inactive)

**Q.** `Oc1c(C(Nc2ccccn2)c2cccnc2)cc(Cl)c2cccnc12` (stereo not given) was tested. Which AC50 did it give?
**A.** > 26 µM (inactive)

**Q.** How did the AC50 turn out when `COC(=O)c1c(C)oc2ccc(N(C(=O)c3ccncc3)S(=O)(=O)c3ccc(C)cc3C)cc12` was run?
**A.** > 26 µM (inactive)

**Q.** `O=C(NCc1cccnc1)c1cc(-c2ccco2)on1` was tested. Which AC50 did it give?
**A.** > 26 µM (inactive)

**Q.** How did the AC50 turn out when `Cc1nc(C)c(C(=O)N/N=C/c2cc(Br)ccc2O)s1` was run?
**A.** > 26 µM (inactive)

**Q.** Which AC50 does the source give for `CC(=O)Nc1ccc(NC(=O)CN(c2cccc([N+](=O)[O-])c2)S(C)(=O)=O)cc1` here?
**A.** > 26 µM (inactive)

**Q.** How did the AC50 turn out when `CCCOC(=O)/C(C(N)=NCc1ccccc1)=C(\O)OCCC` was run?
**A.** > 26 µM (inactive)

**Q.** For `O=C(CN1CCCc2ccccc21)N/N=C/c1ccccc1O`, which AC50 is on record?
**A.** > 26 µM (inactive)

**Q.** For `COc1cc(NC(=O)c2ccc([N+](=O)[O-])o2)ccc1NC(=O)c1cccs1`, which AC50 is on record?
**A.** > 26 µM (inactive)

**Q.** With `CC(=O)NC(c1ccco1)c1cc(F)c2cccnc2c1O` (stereo not given) as the molecule, how does the AC50 read?
**A.** > 26 µM (inactive)

**Q.** `COc1ccc(OC)c(NC(=O)CN(Cc2ccc(F)cc2)C2CCCCC2)c1` was tested. Which AC50 did it give?
**A.** > 26 µM (inactive)

**Q.** With `Oc1ccc(Nc2nc(N3CCCC3)c3ccccc3n2)cc1` as the molecule, how does the AC50 read?
**A.** 8.57 µM

**Q.** Which AC50 does the source give for `CCOC(=O)c1sc(NC(=O)c2c(C)nn(Cc3ccccc3)c2C)cc1C` here?
**A.** > 26 µM (inactive)

**Q.** For `O=C(c1cc(COc2ccc3ncccc3c2)on1)N1CCCCCC1`, which AC50 is on record?
**A.** > 26 µM (inactive)

**Q.** `C#CCOCCOCCOCCNc1nc(N2CCN(C(=O)CCCCCCCCCCNC(=O)[C@H]([C@@H](C)CC)n3cc(CCCCCN)nn3)CC2)nc(N2CCN(C(=O)CCCCCCCCCCNC(=O)[C@H]([C@@H](C)CC)n3cc(CCCCN=C(N)N)nn3)CC2)n1` was tested. Which AC50 did it give?
**A.** > 26 µM (inactive)

**Q.** How did the AC50 turn out when `CC(=O)c1ccccc1OCCOCCOc1ccccc1C(C)=O` was run?
**A.** > 26 µM (inactive)

**Q.** How did the AC50 turn out when `O=c1c2ccccc2nc(COc2ccccc2)n1/N=C/c1ccc(O)cc1O` was run?
**A.** > 26 µM (inactive)

**Q.** For `Cc1ncc(CO)c(/C=N/Nc2ccc(C(F)(F)F)cn2)c1O`, which AC50 is on record?
**A.** > 26 µM (inactive)

**Q.** With `Cc1sc2ncnc(N3CCN(S(=O)(=O)c4ccccc4)CC3)c2c1C` as the molecule, how does the AC50 read?
**A.** > 26 µM (inactive)

**Q.** For `O=C(N/N=C/c1cnc(N2CCCCC2)s1)c1ccc(C(F)(F)F)cc1`, which AC50 is on record?
**A.** > 26 µM (inactive)

**Q.** Which AC50 does the source give for `CCCCCn1c(=O)c(C(=O)NCc2ccccc2Cl)c(O)c2ccccc21` here?
**A.** > 26 µM (inactive)

**Q.** Which AC50 does the source give for `Fc1ccc(-c2cc(-c3nnc4n3CCCCC4)c3ccccc3n2)cc1` here?
**A.** > 26 µM (inactive)

**Q.** Which AC50 does the source give for `O=[N+]([O-])c1ccc(/C=N/Nc2ccnc3cc(Cl)ccc23)o1` here?
**A.** 19.8 µM

**Q.** For `COc1ccc(-c2cc3ccccc3oc2=O)cc1NC(=O)c1ccc([N+](=O)[O-])o1`, which AC50 is on record?
**A.** > 26 µM (inactive)

**Q.** `NNC(=S)Nc1ccc(OC(F)(F)F)cc1` was tested. Which AC50 did it give?
**A.** > 26 µM (inactive)

**Q.** With `O=C(N/N=C/c1cc([N+](=O)[O-])ccc1O)c1cccc2ccccc12` as the molecule, how does the AC50 read?
**A.** > 26 µM (inactive)

**Q.** How did the AC50 turn out when `C#CCOCCOCCOCCNc1nc(N2CCN(C(=O)CCCCCCCCCCNC(=O)[C@H]([C@@H](C)CC)n3cc(CCCCN=C(N)N)nn3)CC2)nc(N2CCN(C(=O)CCCCCCCCCCNC(=O)[C@H](CO)n3cc(CCCCCN)nn3)CC2)n1` was run?
**A.** > 26 µM (inactive)

**Q.** How did the AC50 turn out when `C/C(=N\NC(=O)Cc1ccc(Cl)cc1)c1ccccn1` was run?
**A.** > 26 µM (inactive)

**Q.** Which AC50 does the source give for `C/C(=N\NC(=O)C(C)Oc1ccc([N+](=O)[O-])cc1)c1ccccn1` (stereo not given) here?
**A.** > 26 µM (inactive)

**Q.** For `Cc1sc2ncnc(NC3CCN(Cc4ccccc4)CC3)c2c1C`, which AC50 is on record?
**A.** > 26 µM (inactive)

**Q.** With `Cc1cccc(NC(=O)/C=C/c2ccc([N+](=O)[O-])s2)c1` as the molecule, how does the AC50 read?
**A.** 2.71 µM

**Q.** For `COc1ccc(O)c(/C=N/NC(=S)Nc2cccnc2)c1`, which AC50 is on record?
**A.** > 26 µM (inactive)

**Q.** With `COc1ccc(CCNc2cc(N3CCN(C(=O)c4ccccc4OC)CC3)ccc2[N+](=O)[O-])cc1OC` as the molecule, how does the AC50 read?
**A.** > 26 µM (inactive)

**Q.** `Cc1cc(C)c2nc(NNC(=O)c3ccc(S(=O)(=O)N4CC(C)CC(C)C4)cc3)sc2c1` (stereo not given) was tested. Which AC50 did it give?
**A.** > 26 µM (inactive)

**Q.** `O=C(/C(N=Nc1cccc([N+](=O)[O-])c1)=C(/O)c1ccc(Br)cc1)C(F)(F)F` was tested. Which AC50 did it give?
**A.** > 26 µM (inactive)

**Q.** `O=C(Nc1nc(-c2ccccn2)cs1)c1ccc(F)c(S(=O)(=O)N2CCOCC2)c1` was tested. Which AC50 did it give?
**A.** > 26 µM (inactive)

**Q.** `Cc1cc(/C=C2/SC(=S)N(c3ccc([N+](=O)[O-])cc3)C2=O)c(C)n1-c1cccnc1` was tested. Which AC50 did it give?
**A.** > 26 µM (inactive)

**Q.** For `CCc1ccc(-n2c(C)cc(/C=N/NC(=O)c3ccncc3)c2C)cc1`, which AC50 is on record?
**A.** > 26 µM (inactive)

**Q.** For `O=C(N/N=C\c1c(O)ccc2ccccc12)c1ccc(Cn2cccn2)o1`, which AC50 is on record?
**A.** > 26 µM (inactive)

**Q.** How did the AC50 turn out when `CC1CCC(C(C)C)C(OC(=O)Cn2c(-c3ccc(F)cc3)[n+](C)c3ccccc32)C1` (stereo not given) was run?
**A.** > 26 µM (inactive)

**Q.** Which AC50 does the source give for `CCc1ccc2[nH]c3nc(N/N=C/c4ccc(O)cc4O)nnc3c2c1` here?
**A.** > 12 µM (inactive)

**Q.** Which AC50 does the source give for `O=C(N/N=C/c1ccc(O)cc1O)/C(=C/c1ccccc1)CCO` here?
**A.** > 26 µM (inactive)

**Q.** How did the AC50 turn out when `CCN(CC)S(=O)(=O)c1cc(NC(=O)CNc2cccc(S(=O)(=O)N3CCCC3)c2)ccc1C` was run?
**A.** > 26 µM (inactive)

**Q.** How did the AC50 turn out when `COc1ccccc1N(CC(=O)N/N=C/c1c(O)ccc2ccccc12)S(C)(=O)=O` was run?
**A.** > 26 µM (inactive)

**Q.** With `Cc1nc(NC(=O)C23CC4CC(CC(C4)C2)C3)sc1Cc1ccc2c(c1)OCO2` as the molecule, how does the AC50 read?
**A.** > 26 µM (inactive)

**Q.** Which AC50 does the source give for `Cc1ccc(N=Nc2ccc(O)c3ncccc23)cc1` here?
**A.** > 26 µM (inactive)

**Q.** With `CCCCCc1ccc(-c2cn(CN3C(=O)c4ccccc4C3=O)nn2)cc1` as the molecule, how does the AC50 read?
**A.** > 26 µM (inactive)

**Q.** With `C/C(=N\NC(=O)COc1ccccc1-c1ccccc1)c1ccc(O)cc1O` as the molecule, how does the AC50 read?
**A.** > 26 µM (inactive)

**Q.** `CCC(=O)NC(c1cc(Cl)c2cccnc2c1O)C1CC1` (stereo not given) was tested. Which AC50 did it give?
**A.** > 26 µM (inactive)

**Q.** With `CN(CC1CCCO1)S(=O)(=O)c1ccc(C(=O)Nc2nc(-c3ccccn3)cs2)cc1` (stereo not given) as the molecule, how does the AC50 read?
**A.** > 26 µM (inactive)

**Q.** Which AC50 does the source give for `O=[N+]([O-])c1cccc(/C=N/n2cnnc2)c1` here?
**A.** > 26 µM (inactive)

**Q.** `Cn1c(/C=C/c2ccc([N+](=O)[O-])o2)nc2ccccc2c1=O` was tested. Which AC50 did it give?
**A.** > 26 µM (inactive)

**Q.** `C/C(=N/NC(=O)c1ccc(C(C)(C)C)cc1)c1ccccn1` was tested. Which AC50 did it give?
**A.** > 26 µM (inactive)

**Q.** With `CCCCC(=O)N1C/C=C\C(c2ccc(OC)cc2)N(Cc2ccc(F)cc2)C(=O)[C@H]1Cc1ccccc1` (stereo not given in full) as the molecule, how does the AC50 read?
**A.** > 26 µM (inactive)

**Q.** `Cc1cc(N2CCCC2=O)cc(C)c1S(=O)(=O)NCCOc1ccc(C(C)(C)C)cc1` was tested. Which AC50 did it give?
**A.** > 26 µM (inactive)

**Q.** With `O=C(NNC(=O)c1ccccc1OCc1ccccc1)c1ccccc1O` as the molecule, how does the AC50 read?
**A.** > 26 µM (inactive)

**Q.** `CC(C)C(=O)NC(c1ccccc1)c1cc([N+](=O)[O-])c2cccnc2c1O` (stereo not given) was tested. Which AC50 did it give?
**A.** > 26 µM (inactive)

**Q.** `CCCCC(CC)CN1C(=O)/C(=C/c2ccncc2)SC1=S` (stereo not given) was tested. Which AC50 did it give?
**A.** > 26 µM (inactive)
